Measured values taken from ChEMBL document CHEMBL1201862, “PubChem BioAssay data set” (2004).
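Compound exposure: 48 hours, 5 concentrations, 96-well plates. The concentration for 50% growth inhibition is given as GI50.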 Calls of active or inactive are those of the source. Cut-off read from the data, not from the text of the source: active = GI50 up to about 1.1 µM and inactive = higher.

Key:
Assay in all cases: growth of human tumour cells (NCI), 48 h
[1] = system: LXFL 529
[2] = system: HOP-18
[3] = system: DLD-1
[4] = system: DMS-273
[5] = system: RXF 631
[6] = system: M19-MEL
[7] = system: DMS-114
[8] = system: SNB-78
[9] = system: XF498

Measured: GI50

CCCCN(CCCC)C(=Nc1ccccc1)N(CCCC)CCCC
inactive: [1] 5.36 µM | [2] 1.76 µM | [3] 6.38 µM | [4] 4.61 µM | [5] 10.5 µM | [6] 8.39 µM | [7] 1.59 µM | [8] 11.1 µM | [9] 2.05 µM

Nc1n/c(=N\c2ccccc2)ss1
inactive: [1] > 100 µM | [2] > 100 µM | [3] > 100 µM | [4] > 100 µM | [5] > 100 µM | [6] 99.5 µM | [7] > 100 µM | [8] > 100 µM | [9] > 100 µM

CC(=O)OCCC(O[Si](c1ccccc1)(c1ccccc1)C(C)(C)C)C(C)(C)O (stereo not given)
inactive: [1] 42.7 µM | [2] 25.2 µM | [4] 27 µM | [5] 34.3 µM | [6] 23.1 µM | [7] 19.9 µM | [8] 59.4 µM | [9] 29.4 µM

CC(=O)OC1CC[C@@]2(C)C(CC[C@]3(C)C2CC=C2[C@@H]4C(C)[C@H](C)CCC4(C)CCC23C)[C@@]1(C)C(=O)O (stereo not given in full)
inactive: [1] 17.3 µM | [2] 16.3 µM | [3] 18.7 µM | [4] 21.2 µM | [5] 23.9 µM | [6] 23.1 µM | [7] 18.4 µM | [8] 26.5 µM | [9] 16.9 µM
